Assay results reported in patent US10745370B2, “Farnesyl transferase inhibitors and uses thereof” (MACKAY MEMORIAL HOSPITAL, priority 2016, dated 2020).
“And” between values parts separate entries of the source, which are not always exact repeats. Equal entries are not always repeated.

What was measured:
dendritic cells [1] = assay: Cell marker expression on dendritic cells, flow cytometry; type: cell-based, human; conditions: 10 μM; for expression of CD1a, differentiation marker of dendritic cells: FIG. 9; for expression of CD83, maturation marker of dendritic cells: FIG. 10
Description: (§1) Mononuclear cells (MNCs) were separated from the peripheral blood of healthy donors obtained with written consent by use of Ficoll-Hypaque density centrifugation, followed by positive selection with magnetic anti-CD14 microbeads.
(§2) The isolated CD14^+ cells were cultivated in Minimum Essential Medium (MEM medium) supplemented with 10% fetal bovine serum (FBS), 100 ng/ml granulocyte-macrophage colony-stimulating factor (GM-CSF, Gentaur), and 50 ng/ml interleukin-4 (IL-4, R&D), and kept in an environment of 37° C. with 5% CO2/95% air.
(§3) To evaluate the effects of the present compound on dendritic cells, the CD14^+ cells were respectively treated with 10 μM of test compound (i.e., Mib-5, Mib-6, Mib-7, Mib-8, Mib-9, and Mib-10) on day 1. Then, on day 3, the cultured medium in each well was replenished by adding half the volume of the cultured medium containing the same treatment as indicated above. Then, on day 6, a cytokine cocktail containing IL-1, IL-6, and tumor necrosis factor-α (TNF-α) was added to induce maturation. On day 7, the differentiated dendritic cells were collected and subjected to further assays, including viability assay, morphology observation, and cell marker staining.
(§4) The expression of various types of cell markers, such as CD14, CD206, and CD80 expressed on the surface of macrophages, and CD1a, CD14, CD83, and HLA-DR expressed on the dendritic cells, were respectively detected by fluorescein isothiocyanate (FITC) and phycoerythrin (PE)-conjugated monoclonal antibodies in FACS caliber flowcytometer. Monoclonal antibodies used in this examples included anti-CD14 (IgG-FITC), anti-CD206 (IgG-FITC), anti-CD80-PE, anti-CD1a-PE, anti-CD83-PE and anti-human leukocyte antigen (HLA)-DR-PE. Results were analyzed by CellQuest software.
(§5) In this example, the effects of the present compounds on dendritic cells were investigated. Briefly, the dendritic cells were respectively treated with 10 μM of Mib-5, Mib-6, Mib-7, Mib-8, or Mib-10. Seven days later, the cells were harvested and subjected to analysis of morphology observation, cell viability, and/or cell marker expression.

M2 macrophages = assay: Cell marker expression on M2 macrophages, flow cytometry; type: cell-based, human; conditions: for CD14: M2 population after treatment: Table 5; for CD80: change in M2 population: Table 6; for CD206: change in M2: Table 7; for CD80 expression on M2 macrophages: control 47.64%; for CD14 expression on M2 macrophages: control 55.66%; for CD206 expression on M2 macrophages: control 74.49%
Description: M1 differentiation of freshly isolated CD14^+ cells was induced by the addition of lipopolysaccharide (LPS), while M2 differentiation of freshly isolated CD14^+ cells was induced by the addition of IL-4. Then, the present compounds (e.g., Mib-5, 6, 7, 8, 9, or 10) were added at the indicated dosages. 6 days later, the population of the differentiated macrophages were then determined by cell viability analysis.
as §4

macrophages = assay: Cell marker expression on macrophages (total), flow cytometry; type: cell-based, human; conditions: for total expressed level of CD14: FIG. 3; for level of CD206: FIG. 5; for total level of CD80: compared with the control
Description: as §1, §2, §3
As to the effects of the present compound on macrophages, the CD14^+ cells were cultivated and treated as indicated above except the addition of cytokine cocktail on day 6. The macrophages were collected on day 6 and subjected to further assays, including viability assay, trypan blue exclusion test, morphology observation, cell marker staining, and phagocytotic activity analysis.
as §4

[2] = tested on: skin allograft, C57BL/6 donors, BALB/c recipients; assay: Skin allo-transplantation rejection model; type: in vivo, mice; conditions: 10 mg/kg/day intraperitoneally, 20 days, FIG. 13
Description: Six- to eight-week-old male C57BL/6(H-2^b) and BALB/c(H-2^d) mice were purchased from the Animal Resource Center of the National Science Council of Taiwan (Taipei, Taiwan). All animal experiments were approved by the animal ethics committee of Mackay Memorial Hospital. Surgery for skin transplantation was performed with standardized procedures. In brief, a 2×1 cm full-thickness skin graft was harvested from the C57BL/6 donor mouse. A graft bed on the BALB/c recipient was prepared. The skin graft was sutured to the recipient's graft bed. Rejection was defined as necrosis of more than 80% of the epidermal surface of the graft. The tested agents included vehicle (as control), Mib-5 (10 mg/kg/day), Mib-7 (10 mg/kg/day) and rapamycin (1.5 mg/kg/day as positive control). Treatments were administered intraperitoneally daily for consecutive 20 days until rejection was observed.
The skin allo-transplantation model, by using C57BL/6(H-2^b) mice as donors and BALB/c(H-2^d) mice as recipients, was used to examine the effect of Mib-5 and Mib-7 on allograft survival, in which rapamycin served as a positive control.

dendritic cells [3] = assay: Morphology of dendritic cells by Liu's staining; type: cell-based, human; conditions: 10 μM, seven days, FIG. 8
Description: as §1, §2, §3
Cells were transferred to a glass coverslide and covered with solution A (0.5 g of methylene blue and 1.7 g of Eosin yellow dissolved in 1,000 ml of ethanol). After 45 seconds, solution B (1.3 g of azure, 1.4 g of methylene blue, 23.38 g of Na2HPO4, 6.5 g of KH2PO4, dissolved in 1,000 ml of distilled water) was added in the proportion of 2 parts of B to 1 part of A. Mixed the solutions well by blowing the surface. The slide was left standing for 90 seconds and then washed off the staining solution rapidly by running water. The morphology of stained cells was then examined under microscope.
as §5

rat PFTase = target: T1, rat PFTase (Rattus norvegicus, UniProt Q02293+Q04631); assay: Inhibition of farnesyl transferase (fluorescence assay); type: biochemical; conditions: mean ± SD of three independent experiments
T1 construct: purchased Jena Biosciences
Description: The assay was carried out in 384-well microplates with a final volume of 20 μl by the method modified from the previous report (Long et al., 2009). Briefly, 10 nM of rat PFTase (Jena Biosciences, Jena, Germany) was incubated with the tested compound or DMSO (1%) for 15 min, and then the mixture was added in a solution (50 mM Tris-HCl, pH 7.5, 5 mM MgCl2, 5 mM DTT, 0.1 mM ZnCl2, 0.2% octyl-β-D-glucopyranoside (Sigma, St. Louis, Mo.), 10 μM PFTase substrate dansyl-Gly-Cys-Val-Leu-Ser-OH, and 10 μM farnesyl pyrophosphate (Sigma, St. Louis, Mo.)) to initiate the reaction. The reaction was incubated at 37° C. for 30 min, and the fluorescence was detected by a M5 plate reader (Molecular Devices, CA, USA) at 340 nm excitation and 505 nm emission.

SMILES	expression of CD1a, differentiation marker of dendritic cells (dendritic cells [1])	expression of CD83, maturation marker of dendritic cells (dendritic cells [1])	CD14: M2 population after treatment (M2 macrophages)	CD80: change in M2 population (M2 macrophages)	CD206: change in M2 (M2 macrophages)	CD80 expression on M2 macrophages (M2 macrophages) [%]	CD14 expression on M2 macrophages (M2 macrophages) [%]	CD206 expression on M2 macrophages (M2 macrophages) [%]	total expressed level of CD14 (macrophages)	level of CD206 (macrophages)	total level of CD80 (macrophages)	mean survival of skin allograft in recipient mice [2]	dendritic cell morphology compared with control group (dendritic cells [3])	IC50 (rat PFTase)
COC1=CC(=O)[C@@]2(c3cc(=O)c4c(O)cc(O)cc4o3)[C@H](C[C@]3(C)[C@@H](C(=O)O)CC=C4[C@H]3CCCC4(C)C)C(C)=CC[C@H]2C1=O [Mib-7]	inhibited	inhibited	significant decrease	increase	increase	49.58	89.76	88.88	not affected	increase	significantly reduced	significantly prolonged	cell death reflected in morphology changes, and less dendritic process	< 10 µM and 8.46 µM
COC1=CC(=O)[C@@]2(c3cc(=O)c4ccc(OC)cc4o3)[C@H](C[C@]3(C)[C@@H](C(=O)O)CC=C4[C@H]3CCCC4(C)C)C(C)=CC[C@H]2C1=O [Mib-5]	inhibited	inhibited	significant decrease	increase	increase	53.03	80.33	78.77	not affected	increase	significantly reduced	significantly prolonged	cell death reflected in morphology changes, and less dendritic process	< 10 µM and 7.51 µM
